# Experimental data: patent US10495796B2, “Near-infrared cut filter” (AGC INC., priority 2012, dated 2019)
# Tests used:
# [1] = Absorption characteristics: transmission spectrum of near-infrared absorbing layer of NIR filter (UV-visible spectrophotometer); assay type: physicochemical
# Method: Further, the transmittance of the near-infrared absorbing layer can be measured by using an ultraviolet visible light spectrophotometer. For example, when the near-infrared absorbing layer is provided on a glass substrate, the transmittance is calculated by subtracting the transmittance of only the glass substrate. Note that the transmittance of light of the near-infrared absorbing layer refers to, unless otherwise stated, a ratio to light incident from a direction orthogonal to a main surface of a sample, the ratio of this light traveling straight inside the sample and transmitted to an opposite side. Further, when the transmittance is measured by making light incident from a direction other than the direction orthogonal to the main surface of the sample in the measurement of transmittance of light, an angle made by a straight line indicating the direction of the incident light to a line orthogonal to the main surface is called an incident angle.
# In the condition (ii-3), the value calculated by nd(B)×(λa−λc) (hereinafter, this value may also be described as “Is value”) is a value to be an index indicating steepness of the absorption curve in the vicinity of the boundary between the visible light region and the near-infrared region with respect to a transmission spectrum of the near-infrared absorbing layer. When this value is 115 or less, the absorption curve in the vicinity of the boundary between the visible light region and the near-infrared region is steep with respect to the near-infrared absorbing layer, which can be said as preferable for the NIR filter.
# That is, with respect to the transmission spectrum of the near-infrared absorbing layer, the smaller the difference (λa−λc) between the shortest wavelength λa with transmittance of 1% in the region of 650 nm to 800 nm and the wavelength λc with transmittance of 70% on a shorter wavelength side than the λa, the steeper the absorption curve in the vicinity of the boundary between the visible light region and the near-infrared region. Here, λa−λc also depends on a wavelength width having transmittance of 1% or less (λb−λa; λb is the longest wavelength with transmittance of 1% in the wavelength region of 650 nm to 800 nm). Accordingly, in order to compare and evaluate the steepness of the absorption curve in the above region of the transmission spectrum of the near-infrared absorbing layer, λb−λa is fixed to 30 nm. That is, λb−λa of the near-infrared absorbing layer which the present filter has is not limited to 30 nm.
# Further, in the Is value, (λa−λc) is multiplied by the refractive index nd(B) of the transparent resin (B) contained in the near-infrared absorbing layer as a coefficient. This is to standardize the difference in steepness among resins.
# Regarding transmittance (%/nm) of the NIR filters 1 to 109 obtained above, transmission spectra were measured and calculated by using an ultraviolet visible light spectrophotometer (U-4100 type spectrophotometer made by Hitachi High-Technologies Corporation). Analysis results of transmission spectra of the near-infrared absorbing layers which the NIR filters have are presented in Table 4, Table 5 and Table 6 for the NIR filters 1 to 25, 26 to 51, 52 to 75, respectively, and are presented in Table 7 and Table 8 for the NIR filters 76 to 94, 95 to 109, respectively. In Table 4 to Table 8, the ratios (parts by mass) of dyes to 100 parts by mass of the transparent resin (B) and film thicknesses of the near-infrared absorbing layers are described together.
# Further, conditions of preferred transmission spectra of the near-infrared absorbing layers in the present filter and Is values obtained by the formula: nd(B)×(λa-λc) described in above (ii-3) are described in Table 4 to Table 8 together with λa in the condition (ii-1) and λb-λa in the condition (ii-2). Note that values described in Table 4 to Table 8 are values obtained by subtracting transmittance of a glass plate from transmittance of an NIR filter. […]
# [2] = Solubility of dye to organic solvent; assay type: physicochemical; conditions: 50° C., mass % of the dye to the mass of the entire solution; for Solubility to organic solvent: MIBK: methyl isobutyl ketone
# Method: Regarding the dyes (A11-1) to (A11-10) and (A11-20) to (A11-27) obtained above, solubility to organic solvent was evaluated as follows.
# Three kinds of solvents, cyclohexanone, methyl isobutyl ketone (MIBK), toluene, were used as the organic solvent in the solubility test. Note that in Table 3, % is mass % of the dye to the mass of the entire solution. Further, the temperature of each organic solvent in the solubility test was 50° C.
# [3] = transparent resin acrylic resin BR50, nd(B) 1.56, film thickness 2.3 μm
# [4] = transparent resin polycarbonate EP5000, nd(B) 1.63, film thickness 2.4 μm
# [5] = transparent resin polycarbonate SP3810, nd(B) 1.63, film thickness 1.0 μm
# [6] = transparent resin polycarbonate SP3810, nd(B) 1.63, film thickness 2.8 μm
structure (smiles),measurement,setting,value
CCCC(CCC)C(=O)Nc1cc2c(cc1C1=C([O-])C(=c3cc4c(cc3NC(=O)C(CCC)CCC)=[N+](C)C(C)C4(C)C)C1=O)C(C)(C)C(C)N2C (stereo not drawn) [Example A11-1],430 nm to 600 nm Average transmittance,[1]; [3],95.1%
same,Is value (nd(B)×(λa-λc)),[1]; [3],110.9
same,λa,[1]; [3],689 nm
same,λa − λc,[1]; [3],71 nm
same,λb,[1]; [3],719 nm
same,λb − λa,[1]; [3],30 nm
same,λc,[1]; [3],618 nm
same,λmax,[1]; [3],706 nm
same,430 nm to 600 nm Average transmittance,[1]; [4],96.5%
same,Is value (nd(B)×(λa-λc)),[1]; [4],111.0
same,λa,[1]; [4],694 nm
same,λa − λc,[1]; [4],68 nm
same,λb,[1]; [4],724 nm
same,λb − λa,[1]; [4],30 nm
same,λc,[1]; [4],626 nm
same,λmax,[1]; [4],711 nm
same,430 nm to 600 nm Average transmittance,[1]; [5],97.3%
same,Is value (nd(B)×(λa-λc)),[1]; [5],112.8
same,λa,[1]; [5],694 nm
same,λa − λc,[1]; [5],69 nm
same,λb,[1]; [5],724 nm
same,λb − λa,[1]; [5],30 nm
same,λc,[1]; [5],625 nm
same,λmax,[1]; [5],706 nm
same,430 nm to 600 nm Average transmittance,[1]; [6],96%
same,Is value (nd(B)×(λa-λc)),[1]; [6],112.8
same,λa,[1]; [6],695 nm
same,λa − λc,[1]; [6],69 nm
same,λb,[1]; [6],725 nm
same,λb − λa,[1]; [6],30 nm
same,λc,[1]; [6],626 nm
same,λmax,[1]; [6],711 nm
same,Solubility to organic solvent: Cyclohexanone,[2],10%< mass %
same,Solubility to organic solvent: MIBK,[2],2.50% mass %
same,Solubility to organic solvent: Toluene,[2],10%< mass %
CCCCCCCCCC(CCCCCCC)C(=O)Nc1cc2c(cc1C1=C([O-])C(=c3cc4c(cc3NC(=O)C(CCCCCCC)CCCCCCCCC)=[N+](C)C(C)C4(C)C)C1=O)C(C)(C)C(C)N2C (stereo not drawn) [Example A11-3],Solubility to organic solvent: Cyclohexanone,[2],10%< mass %
same,Solubility to organic solvent: MIBK,[2],10%< mass %
same,Solubility to organic solvent: Toluene,[2],10%< mass %
CCCCC(CC)C(=O)Nc1cc2c(cc1C1=C([O-])C(=c3cc4c(cc3NC(=O)C(CC)CCCC)=[N+](CC)C(C)C4(C)C)C1=O)C(C)(C)C(C)N2CC (stereo not drawn) [Example A11-5],Solubility to organic solvent: Cyclohexanone,[2],10%< mass %
same,Solubility to organic solvent: MIBK,[2],10%< mass %
same,Solubility to organic solvent: Toluene,[2],10%< mass %
CCCCC(CC)C(=O)Nc1cc2c(cc1C1=C([O-])C(=c3cc4c(cc3NC(=O)C(CC)CCCC)=[N+](CCC)C(C)C4(C)C)C1=O)C(C)(C)C(C)N2CCC (stereo not drawn) [Example A11-6],Solubility to organic solvent: Cyclohexanone,[2],10%< mass %
same,Solubility to organic solvent: MIBK,[2],10%< mass %
same,Solubility to organic solvent: Toluene,[2],10%< mass %
CCN1c2cc(NC(=O)C(C)(C)CCCOc3cc(C)ccc3C)c(C3=C([O-])C(=c4cc5c(cc4NC(=O)C(C)(C)CCCOc4cc(C)ccc4C)=[N+](CC)C(C)C5(C)C)C3=O)cc2C(C)(C)C1C (stereo not drawn) [Example A11-8],Solubility to organic solvent: Cyclohexanone,[2],10%< mass %
same,Solubility to organic solvent: MIBK,[2],10%< mass %
same,Solubility to organic solvent: Toluene,[2],10%< mass %
CCCC(C)C(=O)Nc1cc2c(cc1C1=C([O-])C(=c3cc4c(cc3NC(=O)C(C)CCC)=[N+](C)C(C)C4(C)C)C1=O)C(C)(C)C(C)N2C (stereo not drawn) [Example A11-10],Solubility to organic solvent: Cyclohexanone,[2],10%< mass %
same,Solubility to organic solvent: MIBK,[2],1.00% mass %
same,Solubility to organic solvent: Toluene,[2],3.00% mass %
Cc1ccc(C)c(OCCCC(C)(C)C(=O)Nc2cc3c(cc2C2=C([O-])C(=c4cc5c(cc4NC(=O)C(C)(C)CCCOc4cc(C)ccc4C)=[N+](C)C(C)C5(C)C)C2=O)C(C)(C)C(C)N3C)c1 (stereo not drawn) [Example A11-13],430 nm to 600 nm Average transmittance,[1]; [3],94.8%
same,Is value (nd(B)×(λa-λc)),[1]; [3],110.9
same,λa,[1]; [3],683 nm
same,λa − λc,[1]; [3],71 nm
same,λb,[1]; [3],713 nm
same,λb − λa,[1]; [3],30 nm
same,λc,[1]; [3],612 nm
same,λmax,[1]; [3],700 nm
same,430 nm to 600 nm Average transmittance,[1]; [4],96.1%
same,Is value (nd(B)×(λa-λc)),[1]; [4],111.0
same,λa,[1]; [4],689 nm
same,λa − λc,[1]; [4],68 nm
same,λb,[1]; [4],719 nm
same,λb − λa,[1]; [4],30 nm
same,λc,[1]; [4],621 nm
same,λmax,[1]; [4],705 nm
same,430 nm to 600 nm Average transmittance,[1]; [5],97.3%
same,Is value (nd(B)×(λa-λc)),[1]; [5],112.8
same,λa,[1]; [5],689 nm
same,λa − λc,[1]; [5],69 nm
same,λb,[1]; [5],719 nm
same,λb − λa,[1]; [5],30 nm
same,λc,[1]; [5],620 nm
same,λmax,[1]; [5],700 nm
same,430 nm to 600 nm Average transmittance,[1]; [6],95.1%
same,Is value (nd(B)×(λa-λc)),[1]; [6],112.8
same,λa,[1]; [6],689 nm
same,λa − λc,[1]; [6],69 nm
same,λb,[1]; [6],719 nm
same,λb − λa,[1]; [6],30 nm
same,λc,[1]; [6],620 nm
same,λmax,[1]; [6],705 nm
CCCC(C)(C)C(=O)Nc1cc2c(cc1C1=C([O-])C(=c3cc4c(cc3NC(=O)C(C)(C)CCC)=[N+](C)C(C)C4(C)C)C1=O)C(C)(C)C(C)N2C (stereo not drawn) [Example A11-14],430 nm to 600 nm Average transmittance,[1]; [3],94.7%
same,Is value (nd(B)×(λa-λc)),[1]; [3],110.9
same,λa,[1]; [3],684 nm
same,λa − λc,[1]; [3],71 nm
same,λb,[1]; [3],714 nm
same,λb − λa,[1]; [3],30 nm
same,λc,[1]; [3],613 nm
same,λmax,[1]; [3],700 nm
same,430 nm to 600 nm Average transmittance,[1]; [4],95.5%
same,Is value (nd(B)×(λa-λc)),[1]; [4],112.6
same,λa,[1]; [4],689 nm
same,λa − λc,[1]; [4],69 nm
same,λb,[1]; [4],719 nm
same,λb − λa,[1]; [4],30 nm
same,λc,[1]; [4],620 nm
same,λmax,[1]; [4],705 nm
same,430 nm to 600 nm Average transmittance,[1]; [5],97.1%
same,Is value (nd(B)×(λa-λc)),[1]; [5],112.8
same,λa,[1]; [5],689 nm
same,λa − λc,[1]; [5],69 nm
same,λb,[1]; [5],719 nm
same,λb − λa,[1]; [5],30 nm
same,λc,[1]; [5],620 nm
same,λmax,[1]; [5],700 nm
same,430 nm to 600 nm Average transmittance,[1]; [6],95.6%
same,Is value (nd(B)×(λa-λc)),[1]; [6],111.2
same,λa,[1]; [6],689 nm
same,λa − λc,[1]; [6],68 nm
same,λb,[1]; [6],719 nm
same,λb − λa,[1]; [6],30 nm
same,λc,[1]; [6],621 nm
same,λmax,[1]; [6],705 nm
"CCCC(=O)Nc1cc2c(cc1C1=C([O-])C(=c3cc4c(cc3NC(=O)CCC)=[N+](C)C(C)C4(C)C)C1=O)C(C)(C)C(C)N2C (stereo not drawn) [Example A11-21, reference compound]",Solubility to organic solvent: Cyclohexanone,[2],<1.0% mass %
same,Solubility to organic solvent: MIBK,[2],<1.0% mass %
same,Solubility to organic solvent: Toluene,[2],<1.0% mass %
"CCCCCCC(=O)Nc1cc2c(cc1C1=C([O-])C(=c3cc4c(cc3NC(=O)CCCCCC)=[N+](C)C(C)C4(C)C)C1=O)C(C)(C)C(C)N2C (stereo not drawn) [Example A11-23, reference compound]",Solubility to organic solvent: Cyclohexanone,[2],2.50% mass %
same,Solubility to organic solvent: MIBK,[2],<1.0% mass %
same,Solubility to organic solvent: Toluene,[2],2.50% mass %
"CC(C)C(=O)Nc1cc2c(cc1C1=C([O-])C(=c3cc4c(cc3NC(=O)C(C)C)=[N+](C)C(C)C4(C)C)C1=O)C(C)(C)C(C)N2C (stereo not drawn) [Example A11-26, reference compound]",Solubility to organic solvent: Cyclohexanone,[2],<1.0% mass %
same,Solubility to organic solvent: MIBK,[2],<1.0% mass %
same,Solubility to organic solvent: Toluene,[2],<1.0% mass %
